The values below are quoted from earlier work in patent US20210378997A1, “INHIBITOR OF RENAL FIBROSIS IN DIABETIC NEPHROPATHY” (KYOTO PREFECTURAL PUBLIC UNIVERSITY CORPORATION, priority 2018, published 2021).

For this series the following is noted: patients with diabetic nephropathy, 1-year medication.

For the compound `Cc1ccc(=O)n(-c2ccccc2)c1` [pirfenidone], the “renal function (eGFR)” value is “significantly improved”.
